Source: the NIST ThermoML archive (doi:10.1021/je100581m)

Assay: xn = mol fraction of the nth substance listed
Conditions: Liquid, Vibrating tube method

C=CC(C)(O)CCC=C(C)C (stereo not given) [3,7-dimethyl-1,6-octadien-3-ol] + CCCO
mass density [kg/m3]
Conditions	x2 = 0	x2 = 0.107	x2 = 0.206	x2 = 0.3066	x2 = 0.4064	x2 = 0.501	x2 = 0.6034	x2 = 0.7055	x2 = 0.7985	x2 = 0.898
283.15 K, 100 kPa	869.5	867	864.9	862.1	859	855.4	850.3	843.7	835.9	825.2
283.15 K, 5000 kPa	872.6	870.2	868.1	865.4	862.2	858.6	853.6	847	839.3	828.8
283.15 K, 10000 kPa	875.7	873.1	871	868.3	865.2	861.6	856.7	850	842.4	832
283.15 K, 15000 kPa	878.7	876.2	874.1	871.4	868.3	864.8	859.9	853.3	845.8	835.5
283.15 K, 20000 kPa	881.5	879	876.9	874.4	871.3	867.7	862.8	856.3	848.8	838.6
298.15 K, 100 kPa	857.3	854.8	852.7	849.9	846.8	843.2	838.2	831.6	824	813.4
298.15 K, 5000 kPa	860.6	858.1	856	853.3	850.2	846.7	841.7	835.1	827.7	817.2
298.15 K, 10000 kPa	863.9	861.4	859.4	856.6	853.6	850.1	845.2	838.7	831.2	820.8
298.15 K, 15000 kPa	867	864.6	862.6	859.9	856.8	853.3	848.5	842	834.6	824.4
298.15 K, 20000 kPa	870	867.7	865.6	863	859.9	856.5	851.6	845.2	837.9	827.8
